The values that follow come from publication PMC2225439, “Amyloid as a Depot for the Formulation of Long-Acting Drugs” (PLoS Biology, 2008).

Series [1] is described as follows: Peptide release from amyloid (dialysis experiment). To be noted: 35 d; for stability of fibrils from release profile (in words): dialysis of 30-d-old samples. How it is done: Although amyloid fibrils are very stable, they must follow thermodynamic equilibrium conditions between fibril and monomer. […] A total of 200 μl of 30-d-old GnRH analog (in) was dialyzed 4 ml of 5% D-mannitol (out). A 3.5-kDa cutoff, which is twice the size of the peptides studied, was chosen to ensure that the released particles are most likely monomeric. The peptide release and the remaining aggregates were monitored by fluorescence over 35 d at room temperature.
A 200-μl aliquot of aged GnRH in solution conditions given above was transferred into a 0.6-ml Eppendorf tube with a hole in the cap. To study the effect of heparin on peptide release, a mixture of hormone analog and heparin (1:1 v/v) was incubated overnight in parallel with a half-diluted peptide fibril sample in 5% D-mannitol and 0.01% sodium azide. The hole in the cap of the Eppendorf tube was sealed with a 3.5-kDa molecular weight cutoff (MWCO) membrane. Next, the Eppendorf tube was inserted upside down into a 15-ml Falcon tube containing 4 ml of 5% D-mannitol in water and 0.01% sodium azide. Care was taken to make sure that the membrane was exposed to solutions both in and outside and that any bubbles at the membrane interface were removed. The tubes were then incubated at room temperature. To measure the remaining peptide concentration inside the 0.6-ml Eppendorf tube, a 5-μl aliquot was diluted into 500 μl water with 5% D-mannitol, 0.01% sodium azide, and the fluorescence was measured with excitation at 280 nm and emission in the range of 290–500 nm. The excitation slit width was 2 nm, and emission slit width was 11 nm. To determine the peptide concentration outside the membrane in the 15-ml tube, an aliquot of 250 μl of solution was taken from the releasing medium, diluted into 500 μl final volume by 5% D-mannitol, 0.01% sodium azide, and fluorescence was measured. Following spectra recording, the dialysis system was reassembled as described above. […] The normalized intensity maxima from inside and outside the membrane were plotted as a function of time and fit by an exponential function to extract the half-life of the fibrils and the K off, respectively. […] The extracted half-life, t 1/2, is the time taken, during which the fluorescence signal inside the 0.6-ml Eppendorf tube drops by 50%.

Series [2] is described as follows: Thio T binding (amyloid fibril formation). It counts as physicochemical. To be noted: 1 mg/ml in 5% D-mannitol, 0.01% sodium azide, room temperature without stirring, monitored daily over 21 d; fluorescence ex 450 nm / em 482 nm; three independent experiments. On the set-up: key to Thio T Binding: b, binding; n, not binding. How it is done:
The kinetics of fibril formation in vitro is generally a slow process over several days or weeks, and can be monitored by the increase of fluorescence intensity of the cross-β-sheet–sensitive dye, Thio T [15]. Thio T fluorescence is thereby insignificant during the initial incubation period of amyloid aggregation due to the nonexistence of Thio T–sensitive β-sheet aggregates. After the initial phase, a time-dependent increase of fluorescence intensity is observed until a maximum intensity is reached, at which time maximal fibril formation has occurred. […] For the Thio T binding studies, all GnRH analogs were incubated at room temperature at a concentration of 1 mg/ml in 5% D-mannitol, conditions identical to the formulation used in the animal experiments. In addition, 0.01% sodium azide was added. The Thio T fluorescence was monitored daily for all analogs over a period of 21 d (Figure 1).
(§1) GnRH analogs were dissolved in a glass tube in 1 ml of 5% D-mannitol and 0.01% sodium azide at a concentration of 1 mg/ml. The GnRH analogs were then incubated at room temperature without stirring. The fibril formation was monitored by EM, CR, and time-resolved by Thio T binding studies. Three independent experiments were performed for each sample.
A 10-μl aliquot of peptide sample was diluted into 500 μl of water with 5% D-mannitol containing 0.01% (w/v) sodium azide. The solution was mixed with 10 μl of 1 mM Thio T prepared in the same solution. Fluorescence was measured immediately after addition of Thio T. The experiment was measured on a spectrofluorimeter (Photon Technology International) with excitation at 450 nm and emission at 482 nm. The fluorescence intensity at 482 nm was plotted against incubation time (day). A rectangular 10-mm quartz microcuvette was used. Three independent experiments were performed for each sample.

A further series can be described thus: Congo red (CR) binding. It is filed as physicochemical. On the set-up: key to Congo Red: b, binding; n, not binding. As to conditions: analogs incubated for 30 d, 1 mg/ml in 5% D-mannitol, 0.01% sodium azide, room temperature; UV 300–700 nm and by eye; three independent experiments. How it is done:
To confirm amyloid formation by GnRH analogs, CR binding was measured. CR, like Thio T, is a dye routinely used to detect β-sheet–rich assemblies. CR binding can be measured by the “red shift” change of its absorption maximum from 490 to 540 nm, by an increase of the dye's molar absorptivity, and in favorable cases by eye. All three types of measurements were performed with GnRH analogs incubated for 30 d. […] However, five short-acting GnRH analogs, i.e., S3, S4, S6, S10, and S11, bind CR, showing that some short-acting GnRH-analogs are able to form amyloids after prolonged incubation (see also below). In contrast to short-acting analogs, all long-acting analogs bind CR.
as §1
A 5-μl aliquot of peptide sample was mixed with 80 μl of PBS buffer containing 10% ethanol. Then 15 μl of a 100 μM CR solution (filtered through 0.2-μm filter) in PBS containing 10% ethanol was added. After mixing, UV was measured from 300–700 nm. For the measurement of the CR-only spectrum, 15 μl of CR solution with 85 μl of PBS containing 10% ethanol was prepared. As a control, a 5-μl aliquot of GnRH analog mixed with 95 μl of PBS containing 10% ethanol was measured. Three independent experiments were performed for each sample. In addition to the UV measurements, pictures of the cuvette containing the peptide sample and CR were taken to visually show the CR binding to the amyloids.

Series [3] can be described thus: Electron microscopy of negative-stained samples. On the set-up: key to EM^8 / EM^30: fib, fibrils; nfib, no fibrils. It counts as physicochemical. As to conditions: for EM^8: electron microscopy at day 8 of incubation; for EM^8 / EM^30: 1 mg/ml in 5% D-mannitol, room temperature, at least two independent experiments; for EM^30: electron microscopy at day 30 of incubation. How it is done:
To formally determine the formation of amyloid fibrils by GnRH analogs and to characterize other possible assemblies present in the sample, EM was done on all of the GnRH analogs. Since the EM analysis is for a qualitative interpretation only, amyloid fibrils and other small aggregates might be observed under the electron microscope even if only a minority of the sample forms fibrils. Samples were studied after 8 and 30 d of incubation. […] The fibrils show a wide variety of morphologies, comprising helical ultrastructures with varying degrees of lateral association. Furthermore, the fibrils are composed of one or more filaments, resulting in overall diameters ranging from approximately 6 to 12 nm. No oligomers are observed for the long-acting compounds at day 8 or at day 30 (Figures 2 and S2).
as §1
A 5-μl aliquot of peptide sample was diluted into 50 μl of water to a peptide concentration of approximately 50 μM, spotted on a glow-discharged, carbon-coated Formvar grid (Electron Microscopy Sciences), incubated for 5 min, washed with distilled water, and then stained with 1% (w/v) aqueous uranyl formate solution. Uranyl formate solutions were filtered through 0.2-μm sterile syringe filters (Corning) before use. EM analysis was performed using a JEOL JEM-100CXII electron microscope at 80 kV with nominal magnifications between 36,000 and 72,000. Images were recorded digitally by using the SIS Megaview III imaging system. At least two independent experiments were carried out for each sample.

*1 amine or outer side, *2 acyl side, *3 side chain or, on linkers, in order; H or OH if unused. Where a SMILES comes first, the peptide text is derived from it. Side-chain parts run from the residue outwards. [ ]: non-standard residue; d: D form. The star is where a group is joined. dPhe(4-NHCONH2) = NC(=O)Nc1ccc(C[C@@H](N)C(=O)O)cc1; Dihydroorotyl(S) = O=C1C[C@@H](C(=O)*)NC(=O)N1; dPhe(4-NH2) = Nc1ccc(C[C@@H](N)C(=O)O)cc1; dPhe(4-Cl) = N[C@H](Cc1ccc(Cl)cc1)C(=O)O; Phe(4-NH2) = Nc1ccc(C[C@H](N)C(=O)O)cc1; d2Nal = N[C@H](Cc1ccc2ccccc2c1)C(=O)O; Lys(iPr) = CC(C)NCCCC[C@H](N)C(=O)O; NHCH2CH2OCH2CH2OEt = CCOCCOCCN*; d3Pal = N[C@H](Cc1cccnc1)C(=O)O; Methoxycarbamoyl = CONC(=O)*; Nicotinoyl = O=C(c1cccnc1)*; PEG3 = NCCOCCOCCOCCC(=O)O; CO = O=C([*:1])[*:2]; Butyryl = CCCC(=O)*

`CC(=O)N[C@H](Cc1ccc2ccccc2c1)C(=O)N[C@H](Cc1ccc(Cl)cc1)C(=O)N[C@H](Cc1cccnc1)C(=O)N[C@@H](CO)C(=O)N[C@@H](CCCCNC(=O)c1cccnc1)C(=O)N[C@H](CCCCNC(=O)c1cccnc1)C(=O)N[C@@H](CC(C)C)C(=O)N[C@@H](CCCCNC(C)C)C(=O)N1CCC[C@H]1C(=O)N[C@H](C)C(N)=O` [S6, Ac-DNal-DCpa-DPal-Ser-Lys(Nic)-DLys(Nic)-Leu-ILys-Pro-DAla-NH2, reference compound] (Ac-[d2Nal][dPhe(4-Cl)][d3Pal]SK(Nicotinoyl)[dK](Nicotinoyl)L[Lys(iPr)]P[dA]-NH2): the “stability of fibrils from release profile (in words)” value (“stability of fibrils” below) in series [1] was “form unstable fibrils”.
The same measure, in the same setting: then `CONC(=O)NCCOCCOCCOCCC(=O)Nc1ccc(C[C@H](NC(=O)[C@H](CO)NC(=O)[C@@H](Cc2cccnc2)NC(=O)[C@@H](Cc2ccc(Cl)cc2)NC(=O)[C@@H](Cc2ccc3ccccc3c2)NC(C)=O)C(=O)N[C@H](Cc2ccc(NC(N)=O)cc2)C(=O)N[C@@H](CC(C)C)C(=O)N[C@@H](CCCCNC(C)C)C(=O)N2CCC[C@H]2C(=O)N[C@H](C)C(N)=O)cc1` [S2, [Aph(CO-(C2H4O)3-C2H4-NH-CO-NH-OCH3)^5]degarelix] (Ac-[d2Nal][dPhe(4-Cl)][d3Pal]S[Phe(4-NH2)]([PEG3-Methoxycarbamoyl])[dPhe(4-NHCONH2)]L[Lys(iPr)]P[dA]-NH2), with “form unstable fibrils”.
As to “Ac-D3-Pro-DFpa-DTrp-Ser-Tyr-DTrp-Leu-Arg-Pro-Gly-NH2 [S5, reference compound]”, in series [2], the “Thio T Binding” value is reported as “n”. For the same compound, the “Congo Red” value in “Congo red (CR) binding” is “n”. Further, the “EM, formation of amyloid-like fibrils at day 30 (in words)” value in series [3] (30 d of incubation) is on record as “do not form any detectable amyloid-like fibrils”. In series [3], the “EM^8” value is listed as “nfib” and the “EM^30” value is recorded as “nfib”. In series [1] (half-life of fibrils: time in which fluorescence inside drops by 50%, dialysis of 30-d-old analog, 3.5-kDa MWCO, 5% D-mannitol, room temperature, exponential fit, 2 d = intrinsic diffusion of monomer), this compound displayed a t1/2 of 48 h.
Consider `CCOCCOCCNC(=O)Nc1ccc(C[C@@H](NC(=O)[C@H](Cc2ccc(NC(=O)[C@@H]3CC(=O)NC(=O)N3)cc2)NC(=O)[C@H](CO)NC(=O)[C@@H](Cc2cccnc2)NC(=O)[C@@H](Cc2ccc(Cl)cc2)NC(=O)[C@@H](Cc2ccc3ccccc3c2)NC(C)=O)C(=O)N[C@@H](CC(C)C)C(=O)N[C@@H](CCCCNC(C)C)C(=O)N2CCC[C@H]2C(=O)N[C@H](C)C(N)=O)cc1` [S11, [DAph(CONH(C2H4O)2-C2H5]degarelix] (Ac-[d2Nal][dPhe(4-Cl)][d3Pal]S[Phe(4-NH2)](Dihydroorotyl(S))[dPhe(4-NH2)]([CO-NHCH2CH2OCH2CH2OEt])L[Lys(iPr)]P[dA]-NH2), for which, in series [1], the “stability of fibrils” value is “form unstable fibrils”.
Turning to `CCCC(=O)N[C@H](Cc1ccc2ccccc2c1)C(=O)N[C@H](Cc1ccc(Cl)cc1)C(=O)N[C@H](Cc1cccnc1)C(=O)N[C@@H](CO)C(=O)N[C@@H](Cc1ccc(NC(=O)NOC)cc1)C(=O)N[C@H](Cc1ccc(NC(=O)NOC)cc1)C(=O)N[C@@H](CC(C)C)C(=O)N[C@@H](CCCCNC(C)C)C(=O)N1CCC[C@H]1C(=O)N[C@H](C)C(N)=O` [S4, des-Ac-[Aph(CO-NH-OCH3)^5,D-Aph(CO-NH-OCH3)^6]-CH3-(CH2)2-CO-degarelix] (Butyryl-[d2Nal][dPhe(4-Cl)][d3Pal]S[Phe(4-NH2)](Methoxycarbamoyl)[dPhe(4-NH2)](Methoxycarbamoyl)L[Lys(iPr)]P[dA]-NH2), the “stability of fibrils” value in series [1] is “form very stable amyloids with very little peptide release”.
Regarding `CCOCCOCCNC(=O)N[C@H](Cc1ccc2ccccc2c1)C(=O)N[C@H](Cc1ccc(Cl)cc1)C(=O)N[C@H](Cc1cccnc1)C(=O)N[C@@H](CO)C(=O)N[C@@H](Cc1ccc(NC(=O)[C@@H]2CC(=O)NC(=O)N2)cc1)C(=O)N[C@H](Cc1ccc(NC(=O)NOC)cc1)C(=O)N[C@@H](CC(C)C)C(=O)N[C@@H](CCCCNC(C)C)C(=O)N1CCC[C@H]1C(=O)N[C@H](C)C(N)=O` [S3, des-Ac-[D-Aph(CO-NH-OCH3)^6]-C2H5-(C2H4O)2-NH-CO-degarelix] ({NHCH2CH2OCH2CH2OEt-CO}-[d2Nal][dPhe(4-Cl)][d3Pal]S[Phe(4-NH2)](Dihydroorotyl(S))[dPhe(4-NH2)](Methoxycarbamoyl)L[Lys(iPr)]P[dA]-NH2), the “stability of fibrils” value in series [1] is recorded as “form very stable amyloids with very little peptide release”.
On to “Ac-DNal-DCpa-DPal-Ser-Aph(Atz)-DAph(Atz)-Leu-ILys-Pro-DAla-NH2 [L19, reference compound]”, for which the “Thio T Binding” value in series [2] was “b”. Moreover, the “Congo Red” value in the series “Congo red (CR) binding” is “b”. In series [3], the “EM^8” value was “fib” and the “EM^30” value is reported as “fib”.
Turning to “des-Ac-[Aph(CO-NH-OCH3)^5]-CH3-(CH2)2-CO-degarelix [L16]”, the “Thio T Binding” value in series [2] is given as “b”. Further, in the series “Congo red (CR) binding”, the “Congo Red” value is on record as “b”. Also, the “EM, formation of amyloid-like fibrils at day 8 (in words)” value in series [3] (8 d of incubation) is “Short worm-like protofibrils”. In series [3], the “EM^8” value is reported as “fib” and the “EM^30” value is reported as “fib”.
